Measurements as given in publication PMC10466253, “Derivatives of 9-phosphorylated acridine as butyrylcholinesterase inhibitors with antioxidant activity and the ability to inhibit β-amyloid self-aggregation: potential therapeutic agents for Alzheimer’s disease” (Frontiers in Pharmacology, 2023).
Marks after values point to notes of the source that are not given here.

How the values were obtained:
[1] = ABTS radical cation scavenging activity assay; details: for ABTS•+-scavenging activity, TEAC: Trolox equivalent antioxidant capacity, ratio of slopes compound/Trolox; for IC50: concentration for 50% reduction of ABTS radical cation
Protocol: Radical scavenging activity of the compounds was evaluated using the ABTS radical cation (2,2ʹ-azinobis-(3-ethylbenzothiazoline-6-sulfonic acid), ABTS^•+) decolorization assay ([Re et al., 1999]), with minor modifications described in detail in [Makhaeva et al. (2019a)]. To prepare the solution of ABTS^•+, equal volumes of aqueous solutions of 7 mM ABTS and 2.45 mM potassium persulfate were incubated for 12–16 h at room temperature in the dark. Radical scavenging capacity of the compounds was determined by mixing 10 μL of compound solution in DMSO with 240 μL of ABTS^•+ working solution in ethanol (100 μM final concentration). The reduction in ABTS^•+ absorbance was measured spectrophotometrically at 734 nm using a xMark UV/VIS microplate spectrophotometer (Bio-Rad, Hercules, CA, United States) for 1 h with an interval of 10 min compared to a standard synthetic antioxidant Trolox (6-hydroxy-2,5,7,8-tetramethylchroman-2-carboxylic acid). Ascorbic acid was used as a positive control.
The antioxidant activity of the compounds was reported as Trolox equivalent antioxidant capacity (TEAC values) as the ratio of the slopes of the concentration−response curves, test compound/Trolox. The IC50 values for the test compounds were also determined.

[2] = FRAP (ferric reducing antioxidant power) assay; details: Trolox equivalents; 1 h, 37°C, pH 3.6
Protocol: The ferric reducing antioxidant power (FRAP) assay proposed by [Benzie and Strain (1996)]; [Benzie and Strain (1999)] modified to be performed in 96-well microplates as described in detail in [Makhaeva et al. (2020)] was used. 10 μL (0.5 mM) of the tested or reference compounds were mixed with 240 µL of FRAP reagent (2.5 mL of 10 mM TPTZ (2,4,6-tris(2-pyridyl)-s-triazine) solution in 40 mM HCl, 2.5 mL of 20 mM FeCl3 in distilled water and 25 mL of 0.3 M acetate buffer pH 3.6); the absorbance of the mixture was measured spectrophotometrically (λ = 593 nm) with a FLUOStar OPTIMA microplate reader at 600 nm after a 1 h incubation at 37°C against a blank. Trolox was used as a reference compound. The results were expressed as Trolox equivalents (TE)—the ratio of the concentrations of Trolox and the test compound resulting in the same effect on ferric reducing activity.

Porcine liver CES = assay: In vitro inhibition of CES activity (spectrophotometric, 4-NPA substrate); assay type: biochemical; details: compound concentration 20 µM; mean ± SEM, n = 3
Protocol: (§1) Enzymes, substrates, and reference compounds were from Sigma-Aldrich (St. Louis, MO, United States). […] Experimental conditions: K,Na-phosphate buffer (100 mM), 25°С, pH 7.5 for AChE and BChE and pH 8.0 for CES assay. Measurements were carried out on a BioRad Benchmark Plus microplate spectrophotometer (Hercules, CA, United States).
(§2) Test compounds were dissolved in DMSO; final concentration of solvent in the incubation mixture was 2% (v/v).

Human erythrocyte AChE = molecular target: T1, Human erythrocyte AChE (Homo sapiens, UniProt P22303); assay: In vitro inhibition of AChE activity (spectrophotometric, ATCh iodide substrate); assay type: biochemical; details: for Human erythrocyte AChE, (%) inhibition: compound concentration 20 µM, mean ± SEM, n = 3; for inhibition at 20 µM: read-out: Human erythrocyte AChE, (%) inhibition
T1 construct: Human erythrocyte AChE, (%); purchased Sigma-Aldrich; host or cells: human erythrocytes
T1 sequence (P22303 32-617 isoform P22303-2 limits assumed): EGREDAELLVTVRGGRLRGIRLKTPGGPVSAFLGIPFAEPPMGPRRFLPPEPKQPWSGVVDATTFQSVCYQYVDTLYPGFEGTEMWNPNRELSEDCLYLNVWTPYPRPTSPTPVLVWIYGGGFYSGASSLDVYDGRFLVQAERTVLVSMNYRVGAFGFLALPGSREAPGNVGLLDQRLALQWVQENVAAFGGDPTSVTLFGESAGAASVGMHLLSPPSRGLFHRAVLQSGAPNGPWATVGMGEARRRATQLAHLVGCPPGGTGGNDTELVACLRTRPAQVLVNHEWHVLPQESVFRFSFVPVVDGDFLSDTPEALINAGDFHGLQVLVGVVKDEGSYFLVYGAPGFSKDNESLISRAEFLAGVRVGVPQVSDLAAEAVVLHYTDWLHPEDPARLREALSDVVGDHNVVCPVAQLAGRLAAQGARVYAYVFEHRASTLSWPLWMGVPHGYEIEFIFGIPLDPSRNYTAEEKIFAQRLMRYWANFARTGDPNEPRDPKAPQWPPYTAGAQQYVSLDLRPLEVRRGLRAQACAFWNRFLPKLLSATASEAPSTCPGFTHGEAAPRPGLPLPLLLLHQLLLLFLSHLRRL
Protocol: as §1, §2

Equine serum BChE = molecular target: T2, Equine serum BChE (Equus caballus, UniProt P81908); assay: In vitro inhibition of BChE activity (spectrophotometric, BTCh iodide substrate); assay type: biochemical; details: for Equine serum BChE, (%) inhibition: compound concentration 20 µM, mean ± SEM, n = 3; for inhibition at 20 µM: read-out: Equine serum BChE, (%) inhibition
T2 construct: Equine serum BChE, (%); purchased Sigma-Aldrich; host or cells: equine serum
T2 sequence (P81908 whole entry): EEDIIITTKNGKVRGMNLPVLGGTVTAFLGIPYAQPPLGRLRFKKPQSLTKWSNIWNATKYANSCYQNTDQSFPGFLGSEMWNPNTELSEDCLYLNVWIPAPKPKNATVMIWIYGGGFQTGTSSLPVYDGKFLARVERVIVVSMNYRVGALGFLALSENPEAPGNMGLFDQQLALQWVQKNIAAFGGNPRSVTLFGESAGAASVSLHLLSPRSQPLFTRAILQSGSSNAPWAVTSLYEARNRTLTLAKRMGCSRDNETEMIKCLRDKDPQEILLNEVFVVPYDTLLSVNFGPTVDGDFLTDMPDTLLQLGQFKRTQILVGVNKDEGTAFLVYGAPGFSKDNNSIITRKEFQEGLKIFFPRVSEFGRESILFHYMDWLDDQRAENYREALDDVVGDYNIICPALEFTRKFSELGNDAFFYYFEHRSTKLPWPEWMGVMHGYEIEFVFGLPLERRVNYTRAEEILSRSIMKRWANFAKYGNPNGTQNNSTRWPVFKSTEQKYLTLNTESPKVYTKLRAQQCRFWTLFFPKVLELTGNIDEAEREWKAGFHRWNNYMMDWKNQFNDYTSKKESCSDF
Protocol: as §1, §2

β-amyloid (1-42) (Aβ42) = molecular target: T3, β-amyloid (1-42) (Aβ42) (Homo sapiens, UniProt P05067); assay: Inhibition of Aβ42 self-aggregation, thioflavin T fluorescence method; assay type: biochemical; details: Aβ42 50 µM, compound 100 µM, 24 h, 37°C; mean ± SEM, n = 3
T3 construct: purchased AnaSpec Inc
T3 sequence (P05067 672-713 limits assumed): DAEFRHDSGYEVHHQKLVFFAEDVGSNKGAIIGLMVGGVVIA
Protocol: Lyophilized HFIP-pretreated Aβ42 (AnaSpec Inc., 0.5 mg) was dissolved in DMSO to obtain a stable 500 μM solution. […] Myricetin and Propidium iodide in the same concentration were used as references.
Therefore, the decrease in ThT fluorescence in the presence of the studied compound correlates with its activity to inhibit the formation of amyloid aggregates.

BChE = molecular target: T4, BChE (Equus caballus, UniProt P81908); assay: Kinetic studies of BChE inhibition (Lineweaver-Burk); assay type: biochemical, equine
T4 construct: Equine serum BChE, (%); purchased Sigma-Aldrich; host or cells: equine serum
T4 sequence (P81908 whole entry): as the sequence (P81908 whole entry) above
Protocol: Mechanism of BChE inhibition was assessed by a detailed analysis of enzyme kinetics with three increasing concentrations of inhibitor and six substrate concentrations as described in detail in [Makhaeva et al. (2017)].
Lineweaver-Burk plots-double reciprocal representations of Michaelis-Menten parameters-were used to assess the type of inhibition.

O=C1O[C@H]([C@@H](O)CO)C(O)=C1O [Ascorbic acid, reference compound]
ABTS•+-scavenging activity, TEAC [1]: 0.97 ± 0.04 | IC50 [1]: 22.4 ± 2.2 µM | FRAP Fe3+-reducing activity, TE [2]: 1.23 ± 0.11 TE

O=[N+]([O-])c1ccc(OP(=O)(O)Oc2ccc([N+](=O)[O-])cc2)cc1 [BNPP, reference compound]
Porcine liver CES, (%) inhibition (Porcine liver CES): 99.1 ± 0.93 ^e %

COP(=O)(OC)C1c2ccccc2Nc2ccccc21 [Compound 1a]
Human erythrocyte AChE, (%) inhibition (Human erythrocyte AChE): 5.3 ± 1.3% | Equine serum BChE, (%) inhibition (Equine serum BChE): 21.3 ± 1.7% | Porcine liver CES, (%) inhibition (Porcine liver CES): n.а | Inhibition of Aβ42 self-aggregation, (%) (β-amyloid (1-42) (Aβ42)): 4.9 ± 0.4% | ABTS•+-scavenging activity, TEAC [1]: 0.99 ± 0.04 | IC50 [1]: 21.3 ± 1.4 µM | FRAP Fe3+-reducing activity, TE [2]: 1.60 ± 0.01 TE

CCOP(=O)(OCC)C1c2ccccc2Nc2ccccc21 [Compound 1b]
inhibition at 20 µM (Human erythrocyte AChE): 4.4 ± 1.1% | inhibition at 20 µM (Equine serum BChE): 16.9 ± 1.5% | Porcine liver CES, (%) inhibition (Porcine liver CES): n.а | inhibition at 100 µM (β-amyloid (1-42) (Aβ42)): 8.1 ± 0.8% | ABTS•+-scavenging activity, TEAC [1]: 0.97 ± 0.03 | IC50 [1]: 20.8 ± 1.3 µM | FRAP Fe3+-reducing activity, TE [2]: 1.15 ± 0.01 TE

O=P(Oc1ccccc1)(Oc1ccccc1)C1c2ccccc2Nc2ccccc21 [Compound 1c]
inhibition at 20 µM (Human erythrocyte AChE): 6.3 ± 0.9% | IC50 (Equine serum BChE): 48 ± 3.1 µM | Porcine liver CES, (%) inhibition (Porcine liver CES): 21.6 ± 1.7% | inhibition at 100 µM (β-amyloid (1-42) (Aβ42)): 19.8 ± 1.5% | ABTS•+-scavenging activity, TEAC [1]: 1.13 ± 0.05 | IC50 [1]: 17.8 ± 1.1 µM | FRAP Fe3+-reducing activity, TE [2]: 1.13 ± 0.02 TE

O=P(OCc1ccccc1)(OCc1ccccc1)C1c2ccccc2Nc2ccccc21 [Compound 1d, 9-bis(benzyloxy)phosphoryl-9,10-dihydroacridine]
inhibition at 20 µM (Human erythrocyte AChE): 7.6 ± 1.2% | IC50 (Equine serum BChE): 2.9 ± 0.23 µM | Porcine liver CES, (%) inhibition (Porcine liver CES): 18.7 ± 1.4% | inhibition at 100 µM (β-amyloid (1-42) (Aβ42)): 58.9 ± 4.7% | ABTS•+-scavenging activity, TEAC [1]: 0.97 ± 0.04 | IC50 [1]: 20.8 ± 1.3 µM | FRAP Fe3+-reducing activity, TE [2]: 0.97 ± 0.06 TE | type of BChE inhibition (BChE; Lineweaver-Burk analysis): mixed type of inhibition | Ki (BChE; steady state inhibition, read-out: competitive component (Ki) of BChE inhibition): 2.22 ± 0.19 µM

O=P(CCc1ccccc1)(CCc1ccccc1)C1c2ccccc2Nc2ccccc21 [Compound 1e]
inhibition at 20 µM (Human erythrocyte AChE): 8.8 ± 2% | IC50 (Equine serum BChE): 3.22 ± 0.25 µM | Porcine liver CES, (%) inhibition (Porcine liver CES): 22.2 ± 1.7% | inhibition at 100 µM (β-amyloid (1-42) (Aβ42)): 46.9 ± 4.2% | time to reach the maximum degree of ABTS•+ radical binding [1]: 30 min | ABTS•+-scavenging activity, TEAC [1]: 0.9 ± 0.03 | IC50 [1]: 21.8 ± 0.9 µM | FRAP Fe3+-reducing activity, TE [2]: 1.10 ± 0.01 TE

O=P(CCc1ccc(Cl)cc1)(CCc1ccc(Cl)cc1)C1c2ccccc2Nc2ccccc21 [Compound 1f]
inhibition at 20 µM (Human erythrocyte AChE): 6.4 ± 1% | IC50 (Equine serum BChE): 21.7 ± 1.7 µM | inhibition at 100 µM (β-amyloid (1-42) (Aβ42)): 34.1 ± 2.7% | time to reach the maximum degree of ABTS•+ radical binding [1]: 30 min | ABTS•+-scavenging activity, TEAC [1]: 0.80 ± 0.03 | IC50 [1]: 22.6 ± 0.7 µM | FRAP Fe3+-reducing activity, TE [2]: 0.81 ± 0.02 TE

COP(=O)(OC)c1c2ccccc2nc2ccccc12 [Compound 2a]
Human erythrocyte AChE, (%) inhibition (Human erythrocyte AChE): 9.1 ± 1.2% | Equine serum BChE, (%) inhibition (Equine serum BChE): 9.0 ± 1.4% | Porcine liver CES, (%) inhibition (Porcine liver CES): 4.3 ± 1.1% | Inhibition of Aβ42 self-aggregation, (%) (β-amyloid (1-42) (Aβ42)): 4.9 ± 0.4% | FRAP Fe3+-reducing activity, TE [2]: 0.08 ± 0.02 TE

CCOP(=O)(OCC)c1c2ccccc2nc2ccccc12 [Compound 2b]
inhibition at 20 µM (Human erythrocyte AChE): 10.4 ± 1.2% | inhibition at 20 µM (Equine serum BChE): 10.8 ± 1.5% | Porcine liver CES, (%) inhibition (Porcine liver CES): 10.5 ± 1.3% | Inhibition of Aβ42 self-aggregation, (%) (β-amyloid (1-42) (Aβ42)): n.а | FRAP Fe3+-reducing activity, TE [2]: 0.07 ± 0.01 TE

O=P(Oc1ccccc1)(Oc1ccccc1)c1c2ccccc2nc2ccccc12 [Compound 2c]
inhibition at 20 µM (Human erythrocyte AChE): 12.4 ± 1.4% | inhibition at 20 µM (Equine serum BChE): 32.7 ± 2.6% | Porcine liver CES, (%) inhibition (Porcine liver CES): 27.6 ± 2.2% | inhibition at 100 µM (β-amyloid (1-42) (Aβ42)): 3.6 ± 0.3%

O=P(OCc1ccccc1)(OCc1ccccc1)c1c2ccccc2nc2ccccc12 [Compound 2d]
inhibition at 20 µM (Human erythrocyte AChE): 10.8 ± 1.5% | IC50 (Equine serum BChE): 6.9 ± 0.55 µM | times less effective BChE inhibitor than the corresponding dihydroacridine (1d) (Equine serum BChE; ratio of BChE IC50 values): 2.4 | Porcine liver CES, (%) inhibition (Porcine liver CES): 20.4 ± 1.8% | Inhibition of Aβ42 self-aggregation, (%) (β-amyloid (1-42) (Aβ42)): n.а

O=P(CCc1ccccc1)(CCc1ccccc1)c1c2ccccc2nc2ccccc12 [Compound 2e]
inhibition at 20 µM (Human erythrocyte AChE): 10.4 ± 1.3% | inhibition at 20 µM (Equine serum BChE): 25.7 ± 2% | Porcine liver CES, (%) inhibition (Porcine liver CES): 13.5 ± 1.7% | Inhibition of Aβ42 self-aggregation, (%) (β-amyloid (1-42) (Aβ42)): n.а

O=P(CCc1ccc(Cl)cc1)(CCc1ccc(Cl)cc1)c1c2ccccc2nc2ccccc12 [Compound 2f]
inhibition at 20 µM (Human erythrocyte AChE): 15.2 ± 1.3% | inhibition at 20 µM (Equine serum BChE): 20.4 ± 1.6% | Porcine liver CES, (%) inhibition (Porcine liver CES): 18.4 ± 1.4% | inhibition at 100 µM (β-amyloid (1-42) (Aβ42)): 11.2 ± 0.8%

CC[N+](C)(CC)CCC[n+]1c(-c2ccccc2)c2cc(N)ccc2c2ccc(N)cc21.[I-].[I-] [Propidium iodide, reference compound]
Inhibition of Aβ42 self-aggregation, (%) (β-amyloid (1-42) (Aβ42)): 90.7 ± 7.1%

Cc1c(C)c2c(c(C)c1O)CCC(C)(C(=O)O)O2 (centres unmarked) [Trolox, 6-hydroxy-2,5,7,8-tetramethylchroman-2-carboxylic acid, reference compound]
ABTS•+-scavenging activity, TEAC [1]: 1.0 | IC50 [1]: 20.1 ± 0.7 µM | FRAP Fe3+-reducing activity, TE [2]: 1.0 TE
